The values that follow are results of earlier work, collected in patent US20030088889A1, “Enhancing biological activity of plants” (priority 2002, published 2003).

Data set [1] addresses T1, estrogen receptor (Homo sapiens, UniProt P03372).
T1 sequence (P03372 1-595): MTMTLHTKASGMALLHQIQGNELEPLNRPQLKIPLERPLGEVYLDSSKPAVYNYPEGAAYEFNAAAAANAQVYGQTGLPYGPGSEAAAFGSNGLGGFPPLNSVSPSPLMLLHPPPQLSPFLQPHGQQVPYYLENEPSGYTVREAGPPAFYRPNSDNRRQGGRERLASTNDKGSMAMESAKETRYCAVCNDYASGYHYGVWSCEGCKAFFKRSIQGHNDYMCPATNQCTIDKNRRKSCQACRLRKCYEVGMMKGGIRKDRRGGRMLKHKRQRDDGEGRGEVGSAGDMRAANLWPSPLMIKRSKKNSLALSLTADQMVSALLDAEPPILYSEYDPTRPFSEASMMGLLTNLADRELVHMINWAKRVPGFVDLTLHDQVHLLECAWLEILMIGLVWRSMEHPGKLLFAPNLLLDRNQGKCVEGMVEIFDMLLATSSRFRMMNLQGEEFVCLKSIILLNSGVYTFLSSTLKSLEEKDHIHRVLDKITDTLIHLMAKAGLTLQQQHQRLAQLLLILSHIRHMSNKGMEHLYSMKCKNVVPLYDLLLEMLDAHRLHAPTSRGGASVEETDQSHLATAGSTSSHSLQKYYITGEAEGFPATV

In data set [2] the test system is neuronal reuptake of monoamines and amino acids.

In the case of `O=c1cc(-c2ccc(O)c(-c3c(O)cc(O)c4c(=O)cc(-c5ccc(O)cc5)oc34)c2)oc2cc(O)cc(O)c12` [biapigenin], in data set [1], the “affinity to the estrogen receptor” value was “weak affinity”.

Take hyperforin: the “inhibition of neuronal reuptake of monoamines and amino acids” value in data set [2] is given as “potently inhibit”.
